# Experimental data: ChEMBL document CHEMBL1135903 (J Med Chem, 2002)
# Experiments:
# [1] = molecular target: T1, Carbonic anhydrase 4 (Bos taurus, UniProt Q95323)
# T1 sequence (Q95323 whole entry): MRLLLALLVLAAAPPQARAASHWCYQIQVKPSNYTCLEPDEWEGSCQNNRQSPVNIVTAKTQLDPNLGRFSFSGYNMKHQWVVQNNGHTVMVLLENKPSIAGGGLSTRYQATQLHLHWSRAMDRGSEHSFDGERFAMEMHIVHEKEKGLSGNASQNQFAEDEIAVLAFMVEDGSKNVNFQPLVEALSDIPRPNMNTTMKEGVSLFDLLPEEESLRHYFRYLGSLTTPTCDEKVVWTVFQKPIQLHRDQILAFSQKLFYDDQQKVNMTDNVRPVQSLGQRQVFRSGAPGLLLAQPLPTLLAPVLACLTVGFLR
# Description: Inhibitory activity against bovine carbonic anhydrase IV
# [2] = molecular target: Carbonic anhydrase 1 (Homo sapiens, UniProt P00915)
# Sequence of Carbonic anhydrase 1 (P00915 whole entry): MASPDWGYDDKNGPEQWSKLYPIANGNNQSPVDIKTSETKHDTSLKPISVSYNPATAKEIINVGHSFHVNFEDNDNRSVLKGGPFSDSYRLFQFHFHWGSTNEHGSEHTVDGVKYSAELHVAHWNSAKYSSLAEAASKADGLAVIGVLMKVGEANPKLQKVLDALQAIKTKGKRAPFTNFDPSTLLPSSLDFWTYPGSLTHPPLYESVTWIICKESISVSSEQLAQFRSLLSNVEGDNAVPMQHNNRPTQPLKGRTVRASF
# Description: Inhibitory activity against Human carbonic anhydrase I
Ki [1] [nM],Ki [2] [nM],Compound
1010,13000,NS(=O)(=O)c1cccc(NC(=O)CNCCNCC(=O)O)c1
5,43,Cn1nc(S(N)(=O)=O)s/c1=N/C(=O)CN(CCN(CCN(CC(=O)O)CC(=O)/N=c1/sc(S(N)(=O)=O)nn1C)CC(=O)O)CC(=O)O
145,400,NS(=O)(=O)c1cc(S(N)(=O)=O)c(NC(=O)CNCC(=O)O)cc1Cl
5,15,NS(=O)(=O)c1nc2ccc(OCCOC(=O)CN(CCOCCOCCN(CC(=O)O)CC(=O)OCCOc3ccc4nc(S(N)(=O)=O)sc4c3)CC(=O)O)cc2s1
39,350,NS(=O)(=O)c1ccc(CNC(=O)CN(CCOCCOCCN(CC(=O)O)CC(=O)NCc2ccc(S(N)(=O)=O)cc2)CC(=O)O)cc1 [listing 1 of 2 here]
7,41,NS(=O)(=O)c1nc2ccc(OCCOC(=O)CN(CCN(CC(=O)O)c3ccccc3O)c3ccccc3O)cc2s1
430,,NS(=O)(=O)c1ccc(NNC(=O)CN(CCN(CCN(CC(=O)O)CC(=O)NNc2ccc(S(N)(=O)=O)cc2)CC(=O)O)CC(=O)O)cc1
300,760,NS(=O)(=O)c1ccc(CCOC(=O)CN(CCN(CC(=O)O)c2ccccc2O)c2ccccc2O)cc1
165,450,NS(=O)(=O)c1ccc(CCOC(=O)CN(CCN(CC(=O)O)CC(=O)OCCc2ccc(S(N)(=O)=O)cc2)CC(=O)O)cc1
24,76,NS(=O)(=O)c1ccc(NC(=O)CN(CCOCCOCCN(CC(=O)O)CC(=O)O)CC(=O)O)c(I)c1
20,76,NS(=O)(=O)c1ccc(NC(=O)CN(CCOCCOCCN(CC(=O)O)CC(=O)Nc2ccc(S(N)(=O)=O)cc2I)CC(=O)O)c(I)c1
4,,NS(=O)(=O)c1nnc(NC(=O)CN(CCN(CCN(CC(=O)O)CC(=O)Nc2nnc(S(N)(=O)=O)s2)CC(=O)O)CC(=O)O)s1
190,,NS(=O)(=O)c1ccc(CCOC(=O)CN(CCN(CCN(CC(=O)O)CC(=O)O)CC(=O)O)CC(=O)O)cc1
120,710,Cn1nc(S(N)(=O)=O)s/c1=N/C(=O)CNCC(=O)O
13,48,NS(=O)(=O)c1nc2ccc(OC(=O)CN(CC(=O)O)CC(=O)O)cc2s1
400,6150,NS(=O)(=O)c1cccc(NC(=O)CN(CCOCCOCCN(CC(=O)O)CC(=O)Nc2cccc(S(N)(=O)=O)c2)CC(=O)O)c1
78,123,NS(=O)(=O)c1ccc(NC(=O)CN(CCN(CC(=O)O)CC(=O)O)CC(=O)O)c(I)c1
36,50,NS(=O)(=O)c1cc(S(N)(=O)=O)c(NC(=O)CN(CCOCCOCCN(CC(=O)O)CC(=O)Nc2cc(Cl)c(S(N)(=O)=O)cc2S(N)(=O)=O)CC(=O)O)cc1Cl
9,,NS(=O)(=O)c1nc2ccc(NC(=O)CN(CCN(CCN(CC(=O)O)CC(=O)O)CC(=O)O)CC(=O)O)cc2s1
16,35,NS(=O)(=O)c1ccc(CNC(=O)CN(CCOCCOCCN(CC(=O)O)CC(=O)NCc2ccc(S(N)(=O)=O)cc2)CC(=O)O)cc1 [listing 2 of 2 here]
400,9500,NS(=O)(=O)c1ccc(NNC(=O)CN(CCOCCOCCN(CC(=O)O)CC(=O)NNc2ccc(S(N)(=O)=O)cc2)CC(=O)O)cc1
50,130,NS(=O)(=O)c1ccc(NC(=O)CN(CCN(CC(=O)O)CC(=O)O)CC(=O)O)c(Br)c1

Ki [1] [nM],Ki [2] [nM],Compound
265,,NS(=O)(=O)c1ccc(COC(=O)CN(CCN(CCN(CC(=O)O)CC(=O)O)CC(=O)O)CC(=O)O)cc1
5,,NS(=O)(=O)c1nnc(NC(=O)CN(CCN(CC(=O)O)CC(=O)Nc2nnc(S(N)(=O)=O)s2)CC(=O)O)s1 [listing 1 of 2 here]
25,,NS(=O)(=O)c1ccc(CCNC(=O)CN(CCN(CCN(CC(=O)O)CC(=O)NCCc2ccc(S(N)(=O)=O)cc2)CC(=O)O)CC(=O)O)cc1 [listing 1 of 2 here]
170,,NS(=O)(=O)c1ccc(COC(=O)CN(CCN(CCN(CC(=O)O)CC(=O)OCc2ccc(S(N)(=O)=O)cc2)CC(=O)O)CC(=O)O)cc1
21,,NS(=O)(=O)c1ccc(CNC(=O)CN(CCN(CCN(CC(=O)O)CC(=O)NCc2ccc(S(N)(=O)=O)cc2)CC(=O)O)CC(=O)O)cc1 [listing 1 of 2 here]
40,,NS(=O)(=O)c1ccc(CNC(=O)CN(CCN(CCN(CC(=O)O)CC(=O)O)CC(=O)O)CC(=O)O)cc1
54,,NS(=O)(=O)c1ccc(CCNC(=O)CN(CCN(CC(=O)O)CC(=O)NCCc2ccc(S(N)(=O)=O)cc2)CC(=O)O)cc1 [listing 1 of 2 here]
13,,NS(=O)(=O)c1ccc(CCNC(=O)CN(CCN(CC(=O)O)CC(=O)NCCc2ccc(S(N)(=O)=O)cc2)CC(=O)O)cc1 [listing 2 of 2 here]
37,,NS(=O)(=O)c1ccc(CNC(=O)CN(CCN(CCN(CC(=O)O)CC(=O)NCc2ccc(S(N)(=O)=O)cc2)CC(=O)O)CC(=O)O)cc1 [listing 2 of 2 here]
24,,NS(=O)(=O)c1ccc(NC(=O)CN(CCN(CCN(CC(=O)O)CC(=O)Nc2ccc(S(N)(=O)=O)cc2I)CC(=O)O)CC(=O)O)c(I)c1
5,,NS(=O)(=O)c1nc2ccc(OCCOC(=O)CN(CCN(CCN(CC(=O)O)CC(=O)O)CC(=O)O)CC(=O)O)cc2s1
210,,NS(=O)(=O)c1ccc(NC(=O)CN(CCN(CC(=O)O)CC(=O)Nc2ccc(S(N)(=O)=O)cc2)CC(=O)O)cc1 [listing 1 of 2 here]
6,,NS(=O)(=O)c1nc2ccc(NC(=O)CN(CCN(CCN(CC(=O)O)CC(=O)Nc3ccc4nc(S(N)(=O)=O)sc4c3)CC(=O)O)CC(=O)O)cc2s1
27,,NS(=O)(=O)c1ccc(NC(=O)CN(CCN(CCN(CC(=O)O)CC(=O)O)CC(=O)O)CC(=O)O)c(Br)c1
330,,NS(=O)(=O)c1ccccc1NC(=O)CN(CCN(CCN(CC(=O)O)CC(=O)Nc1ccccc1S(N)(=O)=O)CC(=O)O)CC(=O)O
16,,NS(=O)(=O)c1ccc(CCNC(=O)CN(CCN(CCN(CC(=O)O)CC(=O)NCCc2ccc(S(N)(=O)=O)cc2)CC(=O)O)CC(=O)O)cc1 [listing 2 of 2 here]
21,,NS(=O)(=O)c1ccc(NC(=O)CN(CCN(CCN(CC(=O)O)CC(=O)Nc2ccc(S(N)(=O)=O)cc2Br)CC(=O)O)CC(=O)O)c(Br)c1
115,,NS(=O)(=O)c1ccc(CCOC(=O)CN(CCN(CCN(CC(=O)O)CC(=O)OCCc2ccc(S(N)(=O)=O)cc2)CC(=O)O)CC(=O)O)cc1
12,,NS(=O)(=O)c1nnc(NC(=O)CN(CCN(CC(=O)O)CC(=O)Nc2nnc(S(N)(=O)=O)s2)CC(=O)O)s1 [listing 2 of 2 here]
19,,Cn1nc(S(N)(=O)=O)s/c1=N/C(=O)CN(CCN(CCN(CC(=O)O)CC(=O)O)CC(=O)O)CC(=O)O
41,,NS(=O)(=O)c1cc(S(N)(=O)=O)c(NC(=O)CN(CCN(CCN(CC(=O)O)CC(=O)Nc2cc(Cl)c(S(N)(=O)=O)cc2S(N)(=O)=O)CC(=O)O)CC(=O)O)cc1Cl
425,,NS(=O)(=O)c1cccc(NC(=O)CN(CCN(CCN(CC(=O)O)CC(=O)Nc2cccc(S(N)(=O)=O)c2)CC(=O)O)CC(=O)O)c1

Ki [1] [nM],Ki [2] [nM],Compound
630,,NS(=O)(=O)c1ccc(NNC(=O)CN(CCN(CCN(CC(=O)O)CC(=O)O)CC(=O)O)CC(=O)O)cc1
550,,NS(=O)(=O)c1ccccc1NC(=O)CN(CCN(CCN(CC(=O)O)CC(=O)O)CC(=O)O)CC(=O)O
25,,NS(=O)(=O)c1cc(S(N)(=O)=O)c(NC(=O)CN(CCN(CCN(CC(=O)O)CC(=O)Nc2c(S(N)(=O)=O)cc(S(N)(=O)=O)c(Cl)c2Cl)CC(=O)O)CC(=O)O)c(Cl)c1Cl
8,,Cn1nc(S(N)(=O)=O)s/c1=N/C(=O)CN(CCN(CC(=O)O)CC(=O)/N=c1/sc(S(N)(=O)=O)nn1C)CC(=O)O
62,,NS(=O)(=O)c1ccc(CNC(=O)CN(CCN(CC(=O)O)CC(=O)NCc2ccc(S(N)(=O)=O)cc2)CC(=O)O)cc1 [listing 1 of 2 here]
100,,NS(=O)(=O)c1ccc(NC(=O)CN(CCN(CCN(CC(=O)O)CC(=O)Nc2ccc(S(N)(=O)=O)cc2)CC(=O)O)CC(=O)O)cc1
6,,NS(=O)(=O)c1nc2ccc(OC(=O)CN(CCN(CCN(CC(=O)O)CC(=O)O)CC(=O)O)CC(=O)O)cc2s1
27,,NS(=O)(=O)c1ccc(NC(=O)CN(CCN(CCN(CC(=O)O)CC(=O)Nc2ccc(S(N)(=O)=O)cc2Cl)CC(=O)O)CC(=O)O)c(Cl)c1
500,,NS(=O)(=O)c1cccc(NC(=O)CN(CCN(CCN(CC(=O)O)CC(=O)O)CC(=O)O)CC(=O)O)c1
29,,NS(=O)(=O)c1ccc(NC(=O)CN(CCN(CCN(CC(=O)O)CC(=O)O)CC(=O)O)CC(=O)O)c(F)c1
10,,NS(=O)(=O)c1ccc(CNC(=O)CN(CCN(CC(=O)O)CC(=O)NCc2ccc(S(N)(=O)=O)cc2)CC(=O)O)cc1 [listing 2 of 2 here]
18,,NS(=O)(=O)c1ccc(NC(=O)CN(CCN(CCN(CC(=O)O)CC(=O)Nc2ccc(S(N)(=O)=O)cc2F)CC(=O)O)CC(=O)O)c(F)c1
36,,NS(=O)(=O)c1cc(S(N)(=O)=O)c(NC(=O)CN(CCN(CCN(CC(=O)O)CC(=O)O)CC(=O)O)CC(=O)O)c(Cl)c1Cl
36,,NS(=O)(=O)c1ccc(CCNC(=O)CN(CCN(CCN(CC(=O)O)CC(=O)O)CC(=O)O)CC(=O)O)cc1
620,,NS(=O)(=O)c1cccc(NC(=O)CN(CCN(CC(=O)O)CC(=O)Nc2cccc(S(N)(=O)=O)c2)CC(=O)O)c1
29,,NS(=O)(=O)c1ccc(NC(=O)CN(CCN(CCN(CC(=O)O)CC(=O)O)CC(=O)O)CC(=O)O)c(I)c1
230,,NS(=O)(=O)c1ccc(NC(=O)CN(CCN(CC(=O)O)CC(=O)Nc2ccc(S(N)(=O)=O)cc2)CC(=O)O)cc1 [listing 2 of 2 here]
8,,NS(=O)(=O)c1nnc(NC(=O)CCNC(=O)CN(CCN(CCN(CC(=O)O)CC(=O)NCCC(=O)Nc2nnc(S(N)(=O)=O)s2)CC(=O)O)CC(=O)O)s1
16,,NS(=O)(=O)c1nnc(NC(=O)CCNC(=O)CN(CCN(CCN(CC(=O)O)CC(=O)O)CC(=O)O)CC(=O)O)s1
52,,NS(=O)(=O)c1cc(S(N)(=O)=O)c(NC(=O)CN(CCN(CCN(CC(=O)O)CC(=O)O)CC(=O)O)CC(=O)O)cc1Cl
32,,NS(=O)(=O)c1ccc(NC(=O)CN(CCN(CCN(CC(=O)O)CC(=O)O)CC(=O)O)CC(=O)O)c(Cl)c1
